Values of other authors, collected in patent publication US20230039272A1, “COMPOSITION FOR IMPROVED ENERGY, FOCUS AND CLARITY” (Gwella Mushrooms Inc., priority 2021, published 2023).
Residues, ends and D or L forms follow the SMILES beside them. *: point of attachment. PhAc = O=C(Cc1ccccc1)*

Columns and labels:
[1] = test system: Amyloid Beta exposure
[2] = patients with mild to moderate dementia
[3] = high doses for long periods of time

SMILES	cognition restoring effect ([1]; animal models of Alzheimer's Disease, preliminary studies)	neuroprotective effect (cell viability, calcium homeostasis, Reactive Oxygen Species levels, mitochondrial function, tau phosphorylation, neurite outgrowth) ([1]; impairments caused by Amyloid Beta exposure)	quality of life scale [2]	test scores on logical performance, attention, concentration, memory and spatial orientation [2]	step-down retention performance and acquisition performance in active-avoidance situations (in vivo)	learning of animals (pre-clinical studies)	safety [3]
CCOC(=O)CNC(=O)[C@@H]1CCCN1C(=O)Cc1ccccc1 [N-phenylacetyl-L-prolylglycine ethyl ester] (PhAc-Pro-Gly-OEt)	cognition restoring effect	neuroprotective effect					
NC(=O)CN1CC(O)CC1=O (stereo not shown) [Oxiracetam]			improved quality of life scale	higher test scores	improve step-down retention performance and acquisition performance	improve learning of animals	save, even at high doses for long periods of time
